From patent publication US9018388B2, “Pesticidal compositions and processes related thereto” (Dow AgroSciences LLC, priority 2012, dated 2015)

Experiments:
Format in all cases: in vivo
[1] = tested on: Green Peach Aphid (GPA) (Myzus persicae); test: Bioassay on green peach aphid (GPA), foliar spray on cabbage seedlings; conditions: 72 h, read-out: % Mortality GPA 200 ppm
Description: Bioassays on Green Peach Aphid (“GPA”) (Myzus persicae)
Certain molecules disclosed in this document were tested against GPA using procedures described in the following example. In the reporting of the results, the “GPA Rating Table” was used (See Table Section).
Cabbage seedlings grown in 3-inch pots, with 2-3 small (3-5 cm) true leaves, were used as test substrate. The seedlings were infested with 20-50 GPA (wingless adult and nymph stages) one day prior to chemical application. Four pots with individual seedlings were used for each treatment. Test compounds (2 mg) were dissolved in 2 mL of acetone/methanol (1:1) solvent, forming stock solutions of 1000 ppm test compound. The stock solutions were diluted 5× with 0.025% Tween 20 in H2O to obtain the solution at 200 ppm test compound. A hand-held aspirator-type sprayer was used for spraying a solution to both sides of […] leaves until runoff. Reference plants (solvent check) were sprayed with the diluent only containing 20% by volume of acetone/methanol (1:1) solvent. Treated plants were held in a holding room for three days at approximately 25° C. and ambient relative humidity (RH) prior to grading. Evaluation was conducted by counting the number of live aphids per plant under a microscope. Percent Control was measured by using Abbott's correction formula (W. S. Abbott, “A Method of Computing the Effectiveness of an Insecticide” J. Econ. Entomol. 18 (1925), pp. 265-267) as follows. Corrected%Control=100*(X−Y)/X • where • X=No. of live aphids on solvent check plants and • Y=No. of live aphids on treated plants
The results are indicated in the table entitled “Table 5: Biological Results” (See Table Section).

[2] = tested on: Beet Armyworm (BAW) (Spodoptera exigua); test: Bioassay on beet armyworm (BAW), 128-well diet tray assay; conditions: Spodoptera exigua; Beet armyworm, 50 μg/cm^2; read-out: % Mortality BAW 50 μg/cm^2
Summary of the method: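 Second-instar Spodoptera exigua larvae, one to five per well, on artificial diet treated with 50 μg/cm^2 compound in 90:10 acetone-water and dried, eight wells per compound. Held at 25 °C, 14:10 light-dark for five to seven days; percent mortality averaged over wells.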

[3] = tested on: Corn Earworm (CEW) (Helicoverpa zea); test: Bioassay on corn earworm (CEW), 128-well diet tray assay; conditions: Helicoverpa zea; Corn earworm, 50 μg/cm^2; read-out: % Mortality CEW 50 μg/cm^2
Summary of the method: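 Second-instar Helicoverpa zea larvae (one to five per well) placed on artificial diet treated with 50 μg/cm^2 compound in 90:10 acetone-water, dried, eight wells per compound. Held at 25 °C, 14:10 light-dark, five to seven days; percent mortality averaged over wells.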

Structure (SMILES) | pest or weed control at 200 ppm [1] | pest or weed control at 50 µg/cm2, 50 µg/cm2 [2] | pest or weed control at 50 µg/cm2, 50 µg/cm2 [3]
Cc1cccc(C)c1/N=C(/N/N=C/c1ccc(-c2ncn(-c3ccc(OC(F)(F)F)cc3)n2)cc1)SCC(=O)NCCCN [Compound 66C] | 0 to 80% | 50 to 100% | 50 to 100%
Cc1cccc(C)c1/N=C(/N/N=C/c1ccc(-c2ncn(-c3ccc(OC(F)(F)F)cc3)n2)cc1)SC/C=C/Br [Compound 4C] | 0 to 80% | 50 to 100% | 50 to 100%
COc1cc(C)c(/N=C(/N/N=C/c2ccc(-c3ncn(-c4ccc(OC(F)(F)F)cc4)n3)cc2)SCC(=O)N2CCNCC2)c(C)c1 [Compound 65C] | 0 to 80% | 50 to 100% | 50 to 100%
Cc1ccccc1N1CCCS/C1=N\N=C\c1ccc(-c2ncn(-c3ccc(OC(F)(F)F)cc3)n2)cc1 [Compound 195C] | 0 to 80% | 50 to 100% | 50 to 100%
COc1cccc(N2CCS/C2=N\N=C\c2ccc(-c3ncn(-c4ccc(OC(F)(F)F)cc4)n3)cc2)c1 [Compound 147C] | 0 to 80% | 50 to 100% | 50 to 100%
Cc1cccc(C)c1/N=C(/N/N=C/c1ccc(-c2ncn(-c3ccc(OC(F)(F)F)cc3)n2)cc1)SCOC(=O)CNC(=O)OC(C)(C)C [Compound 30C] | 0 to 80% | 50 to 100% | 50 to 100%
Cc1cccc(C)c1-n1c(-c2ccc(OC(F)(F)F)cc2)cs/c1=N\N=C\c1ccc(-c2ncn(-c3ccc(OC(F)(F)F)cc3)n2)cc1 [Compound 78C] | 0 to 80% | 50 to 100% | 50 to 100%
FC(F)(F)Oc1ccc(-n2cnc(-c3ccc(/C=N/N=C4\SCCCN4c4ccccc4-c4ccccc4)cc3)n2)cc1 [Compound 194C] | 0 to 80% | 50 to 100% | 50 to 100%
CC(C)c1ccccc1N1CCS/C1=N\N=C\c1ccc(-c2ncn(-c3ccc(OC(F)(F)F)cc3)n2)cc1 [Compound 132C] | 0 to 80% | 50 to 100% | 50 to 100%
CCOc1ccccc1N1CCS/C1=N\N=C\c1ccc(-c2ncn(-c3ccc(OC(F)(F)F)cc3)n2)cc1 [Compound 146C] | 0 to 80% | 50 to 100% | 50 to 100%
Cc1cccc(C)c1/N=C(/N/N=C/c1ccc(-c2ncn(-c3ccc(OC(F)(F)F)cc3)n2)cc1)SCc1cc2c(C(F)(F)F)nn(C)c2s1 [Compound 19C] | 0 to 80% | 50 to 100% | 50 to 100%
Cc1cc(Br)cc(C)c1N1CCCS/C1=N\N=C\c1ccc(-c2ncn(-c3ccc(OC(F)(F)F)cc3)n2)cc1 [Compound 203C] | 0 to 80% | 50 to 100% | 50 to 100%
COc1cc(Cl)c(/N=C(/N/N=C/c2ccc(-c3ncn(-c4ccc(OC(F)(F)F)cc4)n3)cc2)SCOC(=O)OC(C)C)c(Cl)c1 [Compound 33C] | 0 to 80% | 50 to 100% | 50 to 100%
CC1S/C(=N\N=C\c2ccc(-c3ncn(-c4ccc(OC(F)(F)F)cc4)n3)cc2)N(c2ccccc2C(C)C)C1=O (stereo not drawn) [Compound 88C] | 0 to 80% | 50 to 100% | 50 to 100%
Cc1cccc(C)c1/N=C(/N/N=C/c1ccc(-c2ncn(-c3ccc(OC(F)(F)F)cc3)n2)cc1)SCC(=O)O [Compound 47C] | 0 to 80% | 50 to 100% | 50 to 100%
